Where a SMILES comes first, the peptide text is derived from it. Bridges are numbered along the chain shown (N, C = ends). [ ]: non-standard residue; d: D form. The star is where a group is joined. Ileψ(thiazoline)Cys = CC[C@H](C)[C@H](N)C1=N[C@H](C(=O)*)CS1; dOrn = NCCC[C@@H](N)C(=O)O
Legend:
[1] = DRUGMATRIX: Sodium/nucleoside co-transporter radioligand binding (ligand: nitrobenzylthioinosine); type: cell membranes, Cavia porcellus, Dunkin-Hartley, Cerebral cortex, Membrane; details: Not Active = under 50% inhibition at 10 µM
[2] = molecular target: T1, Alpha-1D adrenergic receptor (Homo sapiens, UniProt P25100); type: cell membranes, HEK293, Membrane; details: hek293; further: in other assays of this panel Not Active means under 50% inhibition at 10 µM
T1 sequence (P25100 whole entry): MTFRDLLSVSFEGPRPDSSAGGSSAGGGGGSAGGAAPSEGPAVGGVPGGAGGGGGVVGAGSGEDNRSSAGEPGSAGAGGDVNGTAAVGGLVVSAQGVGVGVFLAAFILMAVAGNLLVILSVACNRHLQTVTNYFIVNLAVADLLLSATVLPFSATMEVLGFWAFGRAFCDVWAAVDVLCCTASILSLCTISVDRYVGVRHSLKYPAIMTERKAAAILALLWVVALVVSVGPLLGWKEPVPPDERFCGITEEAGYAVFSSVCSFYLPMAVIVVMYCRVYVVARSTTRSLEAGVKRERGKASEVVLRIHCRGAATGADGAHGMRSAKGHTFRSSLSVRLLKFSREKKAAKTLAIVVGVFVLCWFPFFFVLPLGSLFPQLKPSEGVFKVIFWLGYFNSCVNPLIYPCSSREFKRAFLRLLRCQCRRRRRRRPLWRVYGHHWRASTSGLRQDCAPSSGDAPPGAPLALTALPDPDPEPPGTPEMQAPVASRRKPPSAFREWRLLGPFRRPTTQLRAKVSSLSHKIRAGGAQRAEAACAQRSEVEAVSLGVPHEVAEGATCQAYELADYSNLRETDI

[3] = molecular target: T2, Alpha-2A adrenergic receptor (Homo sapiens, UniProt P08913); type: cell membranes, Sf9, Membrane; further: in other assays of this panel Not Active means under 50% inhibition at 10 µM
T2 sequence (P08913 whole entry): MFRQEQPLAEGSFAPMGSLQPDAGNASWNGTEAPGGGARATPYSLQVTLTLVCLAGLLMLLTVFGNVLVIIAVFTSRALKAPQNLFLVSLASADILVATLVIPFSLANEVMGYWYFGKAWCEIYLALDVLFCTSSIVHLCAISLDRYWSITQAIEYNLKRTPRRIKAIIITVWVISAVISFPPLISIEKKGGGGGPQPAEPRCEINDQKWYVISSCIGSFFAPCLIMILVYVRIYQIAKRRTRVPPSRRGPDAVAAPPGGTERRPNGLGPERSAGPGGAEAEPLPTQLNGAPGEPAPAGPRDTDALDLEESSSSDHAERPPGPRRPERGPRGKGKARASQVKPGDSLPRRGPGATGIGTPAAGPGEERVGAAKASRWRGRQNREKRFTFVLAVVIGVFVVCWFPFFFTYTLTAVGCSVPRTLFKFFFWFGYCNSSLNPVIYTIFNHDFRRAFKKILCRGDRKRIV

[4] = molecular target: Aldo-keto reductase family 1 member B1 (Rattus norvegicus, UniProt P07943); type: tissue-based, Lens of camera-type eye;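 further: inhibition of aldose reductase enzyme activity, measured with DL-glyceraldehyde as the substrate; in other assays of this panel Not Active means under 50% inhibition at 10 µM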
[5] = DRUGMATRIX: Atrial Natriuretic Factor (ANF) radioligand binding (ligand: [125I] ANF (rat)); type: cell membranes, Cavia porcellus, Dunkin-Hartley, Adrenal gland, Membrane; details: Not Active = under 50% inhibition at 10 µM
Substance-P receptor = Substance-P receptor (Homo sapiens, UniProt P25103); type: cell membranes, CHO, Membrane; details: cho; further: in other assays of this panel Not Active means under 50% inhibition at 10 µM
Sequence of Substance-P receptor (P25103 whole entry): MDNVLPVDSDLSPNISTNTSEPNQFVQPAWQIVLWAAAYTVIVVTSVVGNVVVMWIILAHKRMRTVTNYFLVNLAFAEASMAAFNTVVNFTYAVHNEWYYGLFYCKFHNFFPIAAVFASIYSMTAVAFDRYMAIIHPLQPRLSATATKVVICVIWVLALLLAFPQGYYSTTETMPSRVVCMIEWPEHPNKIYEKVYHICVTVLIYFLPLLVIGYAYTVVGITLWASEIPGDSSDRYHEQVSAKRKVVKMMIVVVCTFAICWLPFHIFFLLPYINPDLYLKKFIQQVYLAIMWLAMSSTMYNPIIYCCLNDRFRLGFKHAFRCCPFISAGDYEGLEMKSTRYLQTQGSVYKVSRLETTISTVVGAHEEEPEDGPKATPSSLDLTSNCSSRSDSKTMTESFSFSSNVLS

[6] = DRUGMATRIX: Glutamate, NMDA, Agonism radioligand binding (ligand: [3H] CGP-39653); type: cell membranes, Rattus norvegicus, Wistar, Cerebral cortex, Membrane; details: Not Active = under 50% inhibition at 10 µM
[7] = DRUGMATRIX: Leukotriene, BLT (LTB4) radioligand binding (ligand: [3H]LTB4); type: cell membranes, Membrane; details: u-937; Not Active = under 50% inhibition at 10 µM
Melanocortin receptor 5 = Melanocortin receptor 5 (Homo sapiens, UniProt P33032); type: cell membranes, HEK293, Membrane; details: hek293; further: in other assays of this panel Not Active means under 50% inhibition at 10 µM
Sequence of Melanocortin receptor 5 (P33032 whole entry): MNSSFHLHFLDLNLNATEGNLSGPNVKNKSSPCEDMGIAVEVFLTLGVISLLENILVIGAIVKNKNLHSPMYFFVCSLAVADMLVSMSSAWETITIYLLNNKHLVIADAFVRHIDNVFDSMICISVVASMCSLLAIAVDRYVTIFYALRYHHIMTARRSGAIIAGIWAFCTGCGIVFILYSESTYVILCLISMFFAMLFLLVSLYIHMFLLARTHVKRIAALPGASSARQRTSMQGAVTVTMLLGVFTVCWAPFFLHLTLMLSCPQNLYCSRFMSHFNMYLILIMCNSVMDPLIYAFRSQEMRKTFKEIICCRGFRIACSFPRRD

[8] = molecular target: T3, Muscarinic acetylcholine receptor M2 (Homo sapiens, UniProt P08172); type: cell membranes, CHO-K1, Membrane; details: cho-k1; further: in other assays of this panel Not Active means under 50% inhibition at 10 µM
T3 sequence (P08172 whole entry): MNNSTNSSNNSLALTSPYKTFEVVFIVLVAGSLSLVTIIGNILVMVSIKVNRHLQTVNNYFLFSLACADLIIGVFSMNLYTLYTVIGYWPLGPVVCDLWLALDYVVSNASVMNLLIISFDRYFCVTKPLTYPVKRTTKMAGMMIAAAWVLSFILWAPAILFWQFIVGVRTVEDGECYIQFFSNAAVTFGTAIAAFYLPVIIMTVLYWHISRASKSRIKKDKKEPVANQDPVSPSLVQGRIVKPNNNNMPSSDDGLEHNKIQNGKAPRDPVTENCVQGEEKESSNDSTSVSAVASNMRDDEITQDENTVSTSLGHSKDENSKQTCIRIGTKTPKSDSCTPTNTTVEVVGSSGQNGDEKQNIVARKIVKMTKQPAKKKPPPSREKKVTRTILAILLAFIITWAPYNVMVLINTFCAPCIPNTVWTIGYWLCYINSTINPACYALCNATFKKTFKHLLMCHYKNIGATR

Adenosine receptor A2a = Adenosine receptor A2a (Homo sapiens, UniProt P29274); assay: DRUGMATRIX: Adenosine A2A radioligand binding (ligand: […]); type: cell membranes, HEK293, Membrane; details: Not Active = under 50% inhibition at 10 µM
Sequence of Adenosine receptor A2a (P29274 whole entry): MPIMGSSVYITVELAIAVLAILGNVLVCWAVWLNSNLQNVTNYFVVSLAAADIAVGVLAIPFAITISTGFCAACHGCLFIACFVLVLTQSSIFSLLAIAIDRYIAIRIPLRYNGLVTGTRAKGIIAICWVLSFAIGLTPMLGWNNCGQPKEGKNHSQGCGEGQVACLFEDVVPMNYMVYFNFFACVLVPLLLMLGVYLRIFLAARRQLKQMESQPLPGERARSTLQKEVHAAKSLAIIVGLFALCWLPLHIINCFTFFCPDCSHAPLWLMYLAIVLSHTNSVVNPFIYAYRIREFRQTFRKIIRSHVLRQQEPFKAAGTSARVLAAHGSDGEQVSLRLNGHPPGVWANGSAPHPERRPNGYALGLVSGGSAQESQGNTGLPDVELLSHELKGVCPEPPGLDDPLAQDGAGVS

Adenosine receptor A3 = molecular target: T4, Adenosine receptor A3 (Homo sapiens, UniProt P0DMS8); type: cell membranes, CHO-K1, Membrane
T4 sequence (P0DMS8 whole entry): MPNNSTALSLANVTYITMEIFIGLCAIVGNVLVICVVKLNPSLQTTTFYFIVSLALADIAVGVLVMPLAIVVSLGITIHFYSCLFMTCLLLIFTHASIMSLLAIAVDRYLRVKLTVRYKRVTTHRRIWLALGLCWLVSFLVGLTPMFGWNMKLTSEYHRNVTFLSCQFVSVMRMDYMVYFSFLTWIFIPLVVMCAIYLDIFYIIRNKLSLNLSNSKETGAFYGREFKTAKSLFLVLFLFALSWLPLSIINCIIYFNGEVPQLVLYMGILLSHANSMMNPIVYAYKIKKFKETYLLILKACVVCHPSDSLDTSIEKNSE

Structure (SMILES) | IC50 [1] | Ki [1] | IC50 [2] | IC50 ([3]; sf9) | IC50 [4] | IC50 [5] | Ki [5] | IC50 (Substance-P receptor) | IC50 [6] | Ki [6] | IC50 [7] | Ki [7] | IC50 (Melanocortin receptor 5) | IC50 [8] | IC50 (Adenosine receptor A2a; hek293) | IC50 (Adenosine receptor A3; cho-k1) | also measured
C=C1[C@@H]2CCC3[C@@](CC[C@@H]4[C@H](C(=O)O)C[C@@H](O[C@@H]5O[C@H](CO)[C@@H](OS(=O)(=O)[O-])[C@H](OS(=O)(=O)[O-])[C@H]5OC(=O)CC(C)C)C[C@@]34C)(C2)[C@@H]1O.[K+].[K+] (some centres not stated) [ATRACTYLOSIDE] | Not Active | Not Active | Not Active | Not Active | Not Active | Not Active | Not Active | Not Active | Not Active | Not Active | Not Active | Not Active | Not Active | Not Active | Not Active | Not Active | –
Cn1cnc([N+](=O)[O-])c1Sc1ncnc2nc[nH]c12 [AZATHIOPRINE] | Not Active | Not Active | Not Active | Not Active | Not Active | Not Active | Not Active | Not Active | Not Active | Not Active | Not Active | Not Active | Not Active | Not Active | Not Active | Not Active | –
CC1(C)S[C@@H]2[C@H](NC(=O)[C@H](NC(=O)N3CCNC3=O)c3ccccc3)C(=O)N2[C@H]1C(=O)O [AZLOCILLIN] | Not Active | Not Active | Not Active | Not Active | Not Active | Not Active | Not Active | Not Active | Not Active | Not Active | Not Active | Not Active | Not Active | Not Active | Not Active | Not Active | –
CC[C@H](C)[C@H](N)C1=N[C@H](C(=O)N[C@@H](CC(C)C)C(=O)N[C@H](CCC(=O)O)C(=O)N[C@H](C(=O)N[C@H]2CCCCNC(=O)[C@H](CC(N)=O)NC(=O)[C@@H](CC(=O)O)NC(=O)[C@H](Cc3cnc[nH]3)NC(=O)[C@@H](Cc3ccccc3)NC(=O)[C@H]([C@@H](C)CC)NC(=O)[C@@H](CCCN)NC2=O)[C@@H](C)CC)CS1 [BACITRACIN] ({Ileψ(thiazoline)Cys}-L[dE]IK[dOrn]I[dF]H[dD]N; lactam 4-C) | Not Active | Not Active | Not Active | Not Active | Not Active | Not Active | Not Active | Not Active | Not Active | Not Active | Not Active | Not Active | Not Active | Not Active | Not Active | Not Active | –
CCOC(=O)c1ccc(N)cc1 [BENZOCAINE] | Not Active | Not Active | Not Active | Not Active | Not Active | Not Active | Not Active | Not Active | Not Active | Not Active | Not Active | Not Active | Not Active | Not Active | Not Active | Not Active | –
OCc1ccccc1 [BENZYL ALCOHOL] | Not Active | Not Active | Not Active | Not Active | Not Active | Not Active | Not Active | Not Active | Not Active | Not Active | Not Active | Not Active | Not Active | Not Active | Not Active | Not Active | –
CC(C)(Oc1ccc(CCNC(=O)c2ccc(Cl)cc2)cc1)C(=O)O [BEZAFIBRATE] | Not Active | Not Active | Not Active | Not Active | Not Active | Not Active | Not Active | Not Active | Not Active | Not Active | Not Active | Not Active | Not Active | Not Active | Not Active | Not Active | –
CCCC[C@@H](CC)COC(=O)c1ccccc1C(=O)OC[C@@H](CC)CCCC [BIS(2-ETHYLHEXYL)PHTHALATE] | Not Active | Not Active | Not Active | Not Active | Not Active | Not Active | Not Active | Not Active | Not Active | Not Active | Not Active | Not Active | Not Active | Not Active | Not Active | Not Active | –
Oc1c(Cl)cc(Cl)cc1Sc1cc(Cl)cc(Cl)c1O [BITHIONOL] | Not Active | Not Active | Not Active | – | Not Active | Not Active | Not Active | Not Active | Not Active | Not Active | Not Active | Not Active | Not Active | Not Active | – | – | IC50 ([3]; read-out: IC50): 3820 nM; Ki ([3]; read-out: Ki): 1430 nM; IC50 (Adenosine receptor A2a; read-out: IC50): 1170 nM; Ki (Adenosine receptor A2a; read-out: Ki): 655 nM; IC50 (Adenosine receptor A3; read-out: IC50): 829 nM; Ki (Adenosine receptor A3; read-out: Ki): 468 nM
